This note sets out measurements from US12351561B2, “Crystalline (2S,4R)-5-(5'-chloro-2'-fluoro-[1,1'-biphenyl]-4-yl)-2-(ethoxymethyl)-4-(3-hydroxyisoxazole-5-carboxamido)-2-methylpentanoic acid and uses thereof” (THERAVANCE BIOPHARMA R&D IP, LLC, priority 2016, dated 2025).

The target of one data set is T1, NEP (Homo sapiens, UniProt P08473).
T1 construct: from tissue; host or cells: healthy human volunteers (in vivo)
Nature of the data set: Assay 3.1: NEP activity in human (cGMP), single-ascending dose study. The format is in vivo. The protocol:
A Phase 1 single-ascending dose (SAD) clinical trial of Compound I′ (Form I), which converts to or dissolves to provide its soluble form Compound I in the body, was conducted in order to assess neprilysin inhibition for the treatment of a range of cardiovascular and renal diseases, including, e.g., chronic kidney disease, diabetic nephropathy, acute and chronic heart failure, heart failure with reduced ejection fraction, heart failure with preserved ejection fraction, post-myocardial infarction asymptomatic left ventricular dysfunction (post-MI asymptomatic LVD), subacute heart failure and resistant and isolated systolic hypertension. Safety and tolerability, pharmacokinetic (support for QD/BID dosing and non-renal excretion), pharmacodynamic (test for target engagement biomarkers cGMP and ANP), food effect, and absolute oral bioavailability and renal elimination using a ^14C intravenous microtracer, inter alia, were tested.
The Phase 1 study was a double-blind, randomized placebo-controlled single ascending dose study in healthy male and female volunteers randomized in a 4:1 ratio. The study enrolled 56 healthy volunteers over multiple weeks for the ascending-dose portion, which included cohorts (n=10/cohort of 8 active and 2 placebo) administered single ascending doses of 50 mg, 100 mg, 200 mg, 400 mg and 600 mg. A sixth cohort (n=6) was administered i.v. microtracer and oral doses of 10 μg and 100 mg, respectively.
One goal of this study was to determine the mechanism/duration of action of Compound I after dosing in humans.

Data set [1] is described as follows: Assay 1: IV/PO pharmacokinetic study in monkeys. It counts as in vivo, male cynomolgus monkeys. The settings on record: for bioavailability / AUC(0-t): cynomolgus monkey, plasma; for AUC(0-t): read-out: AUClast Mean; for CLlast Mean: monkey. The protocol: A monkey PK study was performed with an appropriate mass of Compound I in volume of vehicle (e.g., 5% sodium bicarbonate, 5% dextrose in H2O, pH 7.4, for oral and IV and filtered through a […] PDVF syringe for IV) such that the final concentration was dosed at 1.0 mg/mL for both IV and PO.
Intravenous doses of Compound I were administered through an indwelling catheter in the cephalic vein followed by a saline flush of approximately 3 mL. Intravenous doses were administered at a volume of 1 mL/kg. Oral doses were delivered into the stomach using a syringe and gavage tube followed by a water flush of approximately 10 mL. Oral doses were administered at a volume of 2 mL/kg. Blood samples were collected from each animal at each time point (pre-dose, 0.083 h, 0.25 h, 0.5 h, 1 h, 2 h, 4 h, 6 h, 8 h, 12 h, and 24 h) via the cephalic, femoral, or sphenous vein through […]. All samples were collected into K2EDTA tubes and placed on ice. Samples were processed to plasma by centrifugation (3200 rpm, 10 minutes, 5° C.), and acidified with a final concentration of 2% acetic acid. Aliquots of plasma were transferred to a 96-well plate tubes and stored frozen (−70° C.) prior to bioanalysis.
(§1) Plasma concentrations of Compound I were determined by LC/MS/MS. Plasma study samples were vortexed and placed in a 96-well plate. The samples were extracted with 200 μL of acetonitrile with an internal standard. The extract was centrifuged for 10 minutes at 2809 RPM and 50 μL supernatant was mixed with 200 μL 0.2% formic acid in water. Samples (10-15 μL) were injected on a ThermoFisher HyPURITY™ (C18 50×2.1 mm) column with a flow rate of 0.35 mL/min. Mobile phase A consisted of water: acetonitrile: formic acid (95:5:0.1, v:v:v) and Mobile phase B consisted of methanol: acetonitrile: formic acid (50:50:0.1, v:v:v) (dog). Mobile phase A consisted of 0.2% formic acid in water and mobile phase B consisted of 0.2% formic acid in acetonitrile (rat and monkey). Pharmacokinetic parameters of Compound I were determined by non-compartmental analysis (Model 201 and Model 200 for IV and PO administration, respectively) using Phoenix WinNonlin Version 6.3 (Certara, Sunnyvale, CA) and using individual plasma concentration time profiles from 3 animals per treatment group.
(§2) Plasma clearance was determined from the intravenous arm of the study, and represents the rate at which plasma is cleared of drug. It is equal to the dose divided by the area under the plasma concentration-time curve. In addition to plasma clearance, it is also essential for an orally administered drug to reach efficacious systemic levels following oral delivery. Oral bioavailability is a measurement of plasma exposures following oral administration relative to exposures following intravenous administration.

The nature of data set [2]: Assay 1: IV/PO pharmacokinetic study in dogs. The format is in vivo, male beagle dogs. To be noted: dog; for bioavailability / AUC(0-t): plasma; for bioavailability: po; for AUC(0-t): read-out: AUClast Mean. The procedure: Each rat, dog or monkey PK study began with formulation of the test compound. Appropriate masses of each test compound were added into a volume of vehicle (e.g. 5% sodium bicarbonate, 5% dextrose in H2O) such that the final concentration of each compound was appropriate to be dosed. Although a homogenous suspension were acceptable for oral dosing, intravenous dosing solutions were sterile-filtered (0.2 μm) prior to dosing to ensure no particulates were administered.
In the dog study, male non-naïve beagle dogs (3 per route) housed at Agilux Laboratories (Worcester, MA) and weighing between 9-14 kg received either an oral or intravenous dose. Oral doses were delivered into the stomach using a syringe and gavage tube followed by a water flush of approximately 10 mL. Oral doses were administered at a volume of 2 mL/kg. Intravenous doses were administered via a percutaneous catheter placed in sphenous vein followed by a saline flush of approximately 3 mL. Intravenous doses were administered at a volume of 0.5 mL/kg. […] Serial blood samples were harvested via direct venipuncture at 3 min, 15 min, 30 min, 1 h, 2 h, 4 h, 6 h, 8 h, 12 h, and 24 h post-dose. All samples were collected manually into microtainer tubes containing EDTA as the anticoagulant and were processed to plasma by refrigerated centrifugation.
as §1, §2

The term bioavailability denotes the share of a dose that reaches the circulation, judged against a reference dose that is usually intravenous.

T1 sequence (P08473 whole entry): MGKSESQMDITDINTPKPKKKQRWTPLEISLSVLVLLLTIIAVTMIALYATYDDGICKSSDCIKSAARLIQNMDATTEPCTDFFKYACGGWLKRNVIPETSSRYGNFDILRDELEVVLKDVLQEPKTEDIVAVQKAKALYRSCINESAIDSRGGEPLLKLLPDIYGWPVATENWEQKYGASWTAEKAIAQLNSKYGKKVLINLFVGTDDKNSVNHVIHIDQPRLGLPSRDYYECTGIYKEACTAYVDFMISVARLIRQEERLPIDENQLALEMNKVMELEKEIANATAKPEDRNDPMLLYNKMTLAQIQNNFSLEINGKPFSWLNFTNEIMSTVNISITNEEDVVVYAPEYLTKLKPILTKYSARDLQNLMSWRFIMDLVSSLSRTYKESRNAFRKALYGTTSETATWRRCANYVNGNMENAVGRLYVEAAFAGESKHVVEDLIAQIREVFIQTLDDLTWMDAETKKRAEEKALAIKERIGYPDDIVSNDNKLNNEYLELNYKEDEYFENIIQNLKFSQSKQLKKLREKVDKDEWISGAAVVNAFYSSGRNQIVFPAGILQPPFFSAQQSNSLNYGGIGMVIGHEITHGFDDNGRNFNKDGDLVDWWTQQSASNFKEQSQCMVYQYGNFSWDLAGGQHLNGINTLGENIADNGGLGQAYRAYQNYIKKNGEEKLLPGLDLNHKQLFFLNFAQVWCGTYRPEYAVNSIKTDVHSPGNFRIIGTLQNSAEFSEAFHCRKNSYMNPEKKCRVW

As to `CCOC[C@](C)(C[C@@H](Cc1ccc(-c2cc(Cl)ccc2F)cc1)NC(=O)c1cc(O)no1)C(=O)O` [Compound I, (2S,4R)-5-(5′-Chloro-2′-fluoro-[1,1′-biphenyl]-4-yl)-2-(ethoxymethyl)-4-(3-hydroxyisoxazole-5-carboxamido)-2-methylpentanoic Acid], the “time window of the highest cGMP levels” value at NEP (healthy subjects, after a single dose) was in the range of 8 to 12 h. Moreover, the “dose levels at which plasma cGMP dose response shows near maximal effect” value at NEP (healthy subjects, single dose) is recorded as at least 100 mg. Moreover, the “change in mean plasma cGMP from baseline” value at NEP (healthy subjects, single dose 50-600 mg, over 24 hours) is reported as “sustained increase in mean plasma cGMP over 24-hours”. Besides, the “cGMP in plasma and urine” value on NEP (human, SAD clinical trial, over 24h) is “sustained elevations of cGMP over 24h in both plasma and urine”. For the same compound, the bioavailability is 55 to 83% in data set [1] (po, higher doses (30 and 100 mg/kg), three different formulations, data not shown, read-out: mean bioavailability); 41.8% in data set [1] (male, IV 1 mg/kg, PO 2 mg/kg, read-out: Oral Bioavailability Mean); 7 to 13% in data set [2] (higher doses (100-300 mg/kg), data not shown, read-out: mean bioavailability); about 17% in data set [2] (male, beagle, 0.1 mg/kg, read-out: Oral Bioavailability Mean). The AUC(0-t) in data set [1] (male, IV, 1 mg/kg) was 2290 ng·h/mL; in data set [1] (male, PO, 2 mg/kg), 1910 ng·h/mL; in data set [2] (male, beagle, IV, 0.1 mg/kg) it was 210 ng·h/mL; in data set [2] (male, beagle, PO, 0.1 mg/kg) it was 34.9 ng·h/mL. The “CLlast Mean” value was 6.33 mL/min/kg in data set [1] (IV, 1 mg/kg); 21.8 mL/min/kg in data set [1] (PO, 2 mg/kg); 47.2 mL/min/kg in data set [2] (PO, 0.1 mg/kg).
